# Tests used:
# [1] = test system: Abeta 1-42 produced and secreted by human neuroblastoma SKNBE2 cells expressing hAPP695; assay: Cellular αLisa assay in SKNBE2 cells, Abeta 1-42; format: cell-based; conditions: 18 hours incubation, read-out: Cellular αLisa assay in SKNBE2 cells Abeta 42 pIC50 (converted)
# Procedure: In two αLisa assays the levels of Abeta total and Abeta 1-42 produced and secreted into the medium of human neuroblastoma SKNBE2 cells are quantified. The assay is based on the human neuroblastoma SKNBE2 expressing the wild type Amyloid Precursor Protein (hAPP695). The compounds are diluted and added to these cells, incubated for 18 hours and then measurements of Abeta 1-42 and Abeta total are taken. Abeta total and Abeta 1-42 are measured by sandwich αLisa. αLisa is a sandwich assay using biotinylated antibody AbN/25 attached to streptavidin coated beads and antibody Ab4G8 or cAb42/26 conjugated acceptor beads for the detection of Abeta total and Abeta 1-42 respectively. In the presence of Abeta total or Abeta 1-42, the beads come into close proximity. The excitation of the donor beads provokes the release of singlet oxygen molecules that trigger a cascade of energy transfer in the acceptor beads, resulting in light emission. Light emission is measured after 1 hour incubation (excitation at […] and emission at 615 nm).
# A best-fit curve is fitted by a minimum sum of squares method to the plot of % Controlmin versus compound concentration. From this an IC50 value (inhibitory concentration causing 50% inhibition of activity) can be obtained. • LC=Median of the low control values • =Low control: cells preincubated without compound, without biotinylated Ab in the αLisa • HC=Median of the High control values • =High Control: cells preincubated without compound • % Effect=100−[(sample−LC)/(HC−LC)*100] • % Control=(sample/HC)*100 • % Controlmin=(sample−LC)/(HC−LC)*100
# [2] = test system: brain levels of soluble Aβ40 and Aβ42; assay: In vivo Aβ lowering, brain levels of soluble Aβ by MSD electrochemiluminescence; design: species or system mouse; conditions: untreated control = 100
# Source text: To determine whether acute administration of an Aβ lowering agent would reduce Aβ levels in vivo, non-transgenic rodents, e.g. mice or rats were used. Animals treated with the Aβ lowering agent were examined and compared to those untreated or treated with vehicle and brain levels of soluble Aβ42, Aβ40, Aβ38, and Aβ37 were quantitated by Meso Scale Discovery's (MSD) electrochemiluminescence detection technology. Treatment periods varied from hours (h) to days and were adjusted based on the results of the Aβ lowering once a time course of onset of effect could be established.
# A typical protocol for measuring Aβ lowering in vivo is shown but it is only one of many variations that could be used to optimize the levels of detectable Aβ. For example, Aβ lowering compounds were formulated in 20% of Captisol® (a sulfo-butyl ether of β-cyclodextrin) in water or 20% hydroxypropyl β cyclodextrin. The Aβ lowering agents were administered as a single oral dose or by any acceptable route of administration to overnight fasted animals. After 4 h, the animals were sacrificed and Aβ levels were analysed.
# Blood was collected by decapitation and exsanguinations in EDTA-treated collection tubes. Blood was centrifuged at 1900 g for 10 minutes (min) at 4° C. and the plasma recovered and flash frozen for later analysis. The brain was removed from the cranium and hindbrain. The cerebellum was removed and the left and right hemisphere were separated. The left hemisphere was stored at −18° C. for quantitative analysis of test compound levels. The right hemisphere was rinsed with phosphate-buffered saline (PBS) buffer and immediately frozen on dry ice and stored at −80° C. until homogenization for biochemical assays.
# Mouse brains from non-transgenic animals were resuspended in 8 volumes of 0.4% DEA (diethylamine)/50 mM NaCl containing protease inhibitors (Roche-11873580001 or 04693159001) per gram of tissue, e.g. for 0.158 g brain, add 1.264 ml of 0.4% DEA. All samples were homogenized in the FastPrep-24 system (MP Biomedicals) using lysing matrix D (MPBio #6913-100) at 6 m/s for 20 seconds. Homogenates were centrifuged at 20800×g for 5 min and supernatants collected. Supernatants were centrifuged at 221.300×g for 50 min. The resulting high speed supernatants were then transferred to fresh eppendorf tubes. Nine parts of supernatant were neutralized with 1 part 0.5 M Tris-HCl pH 6.8 and used to quantify Aβ.
# To quantify the amount of Aβ42, Aβ40, Aβ38, and Aβ37 in the soluble fraction of the brain homogenates, simultaneous specific detection of Aβ42, Aβ40, Aβ38, and Aβ37 was performed using MSD's electro-chemiluminescence multiplex detection technology. In this assay purified monoclonal antibodies specific for Abeta37 (JRD/Aβ37/3), Abeta38 (J&JPRD/Aβ38/5), Abeta40 (JRF/cAβ40/28), and Abeta42 (JRF/cAβ42/26) were coated on MSD 4-plex plates. Briefly, the standards (a dilution of synthetic Aβ42, Aβ40, Aβ38, and Aβ37) were prepared in 1.5 ml Eppendorf tube in Ultraculture, with final concentrations ranging from 10000 to 0.3 pg/m. The samples and standards were co-incubated with Sulfo-tag labelled JRF/rAβ/2 antibody to the N-terminus of Aβ as detector antibody. 50 μl of conjugate/sample or conjugate/standards mixtures were then added to the antibody-coated plate. The plate was allowed to incubate overnight at 4° C. in order to allow formation of the antibody-amyloid complex. Following this incubation and subsequent wash steps the assay was finished by adding read buffer according to the manufacturer's instructions (Meso Scale Discovery, Gaitherburg, Md.).
# The SULFO-TAG emits light upon electrochemical stimulation initiated at the electrode. MSD Sector instrument SI6000 was used for signal read-out.
# The results are shown in Table 7 (value for untreated animals as control (Ctrl) was set at 100): […]
# [3] = dose 10, s.c., 2 h after administration
# [4] = dose 10, s.c., 4 h after administration
# [5] = dose 10, p.o., 4 h after administration
structure (smiles),measurement,setting,value
"Cn1cc2n(c1=O)C[C@@](C)(c1cc(NC(=O)c3ccc(C#N)cn3)ccc1F)N=C2N [Compound 1, N-{3-[(6R)-8-Amino-2,6-dimethyl-3-oxo-2,3,5,6-tetrahydroimidazo[1,5-a]pyrazin-6-yl]-4-fluorophenyl}-5-cyanopyridine-2-carboxamide]",IC50,[1],13.2 nM
same,Aβ40 (% vs Ctrl)_Mean,[2]; [3],105 % vs Ctrl
same,Aβ42 (% vs Ctrl)_Mean,[2]; [3],105 % vs Ctrl
same,Aβ40 (% vs Ctrl)_Mean,[2]; [4],132 % vs Ctrl
same,Aβ42 (% vs Ctrl)_Mean,[2]; [4],109 % vs Ctrl
"Cn1cc2n(c1=O)C[C@@](C)(c1cc(NC(=O)c3ccc(Cl)cn3)ccc1F)N=C2N [Compound 4, N-{3-[(6R)-8-amino-2,6-dimethyl-3-oxo-5H-imidazo[1,5-a]pyrazin-6-yl]-4-fluoro-phenyl}-5-chloro-pyridine-2-carboxamide]",IC50,[1],6.31 nM
same,Aβ40 (% vs Ctrl)_Mean,[2]; [4],121 % vs Ctrl
same,Aβ42 (% vs Ctrl)_Mean,[2]; [4],125 % vs Ctrl
"Cc1nc(C(=O)Nc2ccc(F)c([C@]3(C)Cn4c(cn(C)c4=O)C(N)=N3)c2)co1 [Compound 3, N-{3-[(6R)-8-Amino-2,6-dimethyl-3-oxo-2,3,5,6-tetrahydroimidazo[1,5-a]pyrazin-6-yl]-4-fluorophenyl}-2-methyl-1,3-oxazole-4-carboxamide]",IC50,[1],57.5 nM
same,Aβ40 (% vs Ctrl)_Mean,[2]; [5],94 % vs Ctrl
same,Aβ42 (% vs Ctrl)_Mean,[2]; [5],97 % vs Ctrl

# Reference: patent US9834559B2, “4-Amino-6-phenyl-5,6-dihydroimidazo[1,5-a]pyrazin-3(2H)-one derivatives as inhibitors of beta-secretase (BACE)” (Janssen Pharmaceutica NV, priority 2013, dated 2017)
